Measurements published in ChEMBL document CHEMBL4387741, “Optimization of novel reversible Bruton's tyrosine kinase inhibitors identified using Tethering-fragment-based screens” (Bioorg Med Chem, 2019).

Tests used:
[1] = biological target: Non-receptor tyrosine-protein kinase TNK1 (Homo sapiens) (UniProt Q13470); assay: Inhibition of wild-type human full length TNK1 (M1 to P661 residues) expressed in bacterial expression system at 1 uM by Kinomescan method relative to control
[2] = biological target: Calcium/calmodulin-dependent protein kinase type II subunit delta (Homo sapiens) (UniProt Q13557); assay: Inhibition of wild-type human partial length CAMK2D (M1 to E329 residues) expressed in bacterial expression system at 1 uM by Kinomescan method relative to control
[3] = biological target: Calcium/calmodulin-dependent protein kinase type 1B (Homo sapiens) (UniProt Q6P2M8); assay: Inhibition of wild-type human partial length CAMK1B (W9 to A311 residues) expressed in mammalian expression system at 1 uM by Kinomescan method relative to control
[4] = biological target: RAC-alpha serine/threonine-protein kinase (Homo sapiens) (UniProt P31749); assay: Inhibition of wild-type human partial length AKT1 expressed in bacterial expression system at 1 uM by Kinomescan method relative to control
[5] = biological target: Casein kinase I isoform gamma-2 (Homo sapiens) (UniProt P78368); assay: Inhibition of wild-type human full length CSNK1G2 (M1 to K415 residues) expressed in bacterial expression system at 1 uM by Kinomescan method relative to control
[6] = biological target: Serine/threonine-protein kinase ULK3 (Homo sapiens) (UniProt Q6PHR2); assay: Inhibition of wild-type human partial length ULK3 (M1 to Q290 residues) expressed in mammalian expression system at 1 uM by Kinomescan method relative to control
[7] = biological target: Megakaryocyte-associated tyrosine-protein kinase (Homo sapiens) (UniProt P42679); assay: Inhibition of wild-type human full length CTK (M43 to P508 residues) expressed in mammalian expression system at 1 uM by Kinomescan method relative to control
[8] = biological target: Serine/threonine-protein kinase 3 (Homo sapiens) (UniProt Q13188); assay: Inhibition of wild-type human partial length MST2 (D17 to E318 residues) expressed in bacterial expression system at 10 uM by Kinomescan method relative to control
[9] = biological target: Serine/threonine-protein kinase ULK2 (Homo sapiens) (UniProt Q8IYT8); assay: Inhibition of wild-type human partial length ULK2 (M1 to S301 residues) expressed in mammalian expression system at 10 uM by Kinomescan method relative to control
[10] = system: Proto-oncogene tyrosine-protein kinase receptor Ret (Homo sapiens), P07949 [V804M]; assay: Inhibition of human partial length RET V804M mutant (E713 to D1014 residues) expressed in bacterial expression system at 10 uM by Kinomescan method relative to control
[11] = biological target: BMP-2-inducible protein kinase (Homo sapiens) (UniProt Q9NSY1); assay: Inhibition of wild-type human partial length BIKE (S34 to N329 residues) expressed in bacterial expression system at 10 uM by Kinomescan method relative to control
[12] = biological target: Serine/threonine-protein kinase 4 (Homo sapiens) (UniProt Q13043); assay: Inhibition of wild-type human full length MST1 (M1 to F487 residues) expressed in bacterial expression system at 10 uM by Kinomescan method relative to control
[13] = biological target: Serine/threonine-protein kinase Nek2 (Homo sapiens) (UniProt P51955); assay: Inhibition of wild-type human partial length NEK2 (M1 to K309 residues) expressed in bacterial expression system at 10 uM by Kinomescan method relative to control
[14] = biological target: Serine/threonine-protein kinase TNNI3K (Homo sapiens) (UniProt Q59H18); assay: Inhibition of wild-type human full length TNNI3K (M1 to S835 residues) expressed in bacterial expression system at 10 uM by Kinomescan method relative to control
[15] = biological target: Non-receptor tyrosine-protein kinase TNK1 (Homo sapiens) (UniProt Q13470); assay: Inhibition of wild-type human full length TNK1 (M1 to P661 residues) expressed in bacterial expression system at 10 uM by Kinomescan method relative to control
[16] = biological target: cAMP-dependent protein kinase catalytic subunit beta (Homo sapiens) (UniProt P22694); assay: Inhibition of wild-type human full length PKAC-beta (M1 to F351 residues) expressed in bacterial expression system at 10 uM by Kinomescan method relative to control
[17] = biological target: Membrane-associated tyrosine- and threonine-specific cdc2-inhibitory kinase (Homo sapiens) (UniProt Q99640); assay: Inhibition of wild-type human partial length PKMYT1 (A88 to G366 residues) expressed in bacterial expression system at 10 uM by Kinomescan method relative to control
[18] = biological target: Mitogen-activated protein kinase kinase kinase kinase 2 (Homo sapiens) (UniProt Q12851); assay: Inhibition of wild-type human partial length MAP4K2 (M1 to G318 residues) expressed in mammalian expression system at 10 uM by Kinomescan method relative to control
[19] = biological target: Serine/threonine-protein kinase BRSK1 (Homo sapiens) (UniProt Q8TDC3); assay: Inhibition of wild-type human partial length BRSK1 (M1 to E754 residues) expressed in bacterial expression system at 10 uM by Kinomescan method relative to control
[20] = system: Epidermal growth factor receptor (Homo sapiens), P00533 [UNDEFINED MUTATION]; assay: Inhibition of human partial length EGFR L747-T751del/Sins mutant expressed in bacterial expression system at 10 uM by Kinomescan method relative to control
[21] = biological target: Serine/threonine-protein kinase Nek9 (Homo sapiens) (UniProt Q8TD19); assay: Inhibition of wild-type human partial length NEK9 (P32 to R328 residues) expressed in bacterial expression system at 10 uM by Kinomescan method relative to control
[22] = biological target: Mitogen-activated protein kinase kinase kinase 3 (Homo sapiens) (UniProt Q99759); assay: Inhibition of wild-type human partial length MAP3K3 (E320 to Y626 residues) expressed in mammalian expression system at 10 uM by Kinomescan method relative to control
[23] = biological target: Macrophage-stimulating protein receptor (Homo sapiens) (UniProt Q04912); assay: Inhibition of wild-type human partial length MST1R (I1057 to L1363 residues) expressed in bacterial expression system at 10 uM by Kinomescan method relative to control
[24] = biological target: Rho-associated protein kinase 2 (Homo sapiens) (UniProt O75116); assay: Inhibition of wild-type human partial length ROCK2 (M1 to T431 residues) expressed in mammalian expression system at 10 uM by Kinomescan method relative to control
[25] = biological target: Tyrosine-protein kinase ABL1 (Homo sapiens) (UniProt P00519); assay: Inhibition of wild-type human non-phosphorylated ABL1 (S229 to K512 residues) expressed in mammalian expression system at 10 uM by Kinomescan method relative to control
[26] = biological target: Focal adhesion kinase 1 (Homo sapiens) (UniProt Q05397); assay: Inhibition of wild-type human partial length FAK (D402 to R696 residues) expressed in bacterial expression system at 10 uM by Kinomescan method relative to control
[27] = system: Tyrosine-protein kinase ABL1 (Homo sapiens), P00519 [M351T]; assay: Inhibition of human phosphorylated ABL1 M351T mutant (S229 to K512 residues) expressed in mammalian expression system at 10 uM by Kinomescan method relative to control

Sequence of Non-receptor tyrosine-protein kinase TNK1 (Homo sapiens) (Q13470 whole entry, the tested form may be a part): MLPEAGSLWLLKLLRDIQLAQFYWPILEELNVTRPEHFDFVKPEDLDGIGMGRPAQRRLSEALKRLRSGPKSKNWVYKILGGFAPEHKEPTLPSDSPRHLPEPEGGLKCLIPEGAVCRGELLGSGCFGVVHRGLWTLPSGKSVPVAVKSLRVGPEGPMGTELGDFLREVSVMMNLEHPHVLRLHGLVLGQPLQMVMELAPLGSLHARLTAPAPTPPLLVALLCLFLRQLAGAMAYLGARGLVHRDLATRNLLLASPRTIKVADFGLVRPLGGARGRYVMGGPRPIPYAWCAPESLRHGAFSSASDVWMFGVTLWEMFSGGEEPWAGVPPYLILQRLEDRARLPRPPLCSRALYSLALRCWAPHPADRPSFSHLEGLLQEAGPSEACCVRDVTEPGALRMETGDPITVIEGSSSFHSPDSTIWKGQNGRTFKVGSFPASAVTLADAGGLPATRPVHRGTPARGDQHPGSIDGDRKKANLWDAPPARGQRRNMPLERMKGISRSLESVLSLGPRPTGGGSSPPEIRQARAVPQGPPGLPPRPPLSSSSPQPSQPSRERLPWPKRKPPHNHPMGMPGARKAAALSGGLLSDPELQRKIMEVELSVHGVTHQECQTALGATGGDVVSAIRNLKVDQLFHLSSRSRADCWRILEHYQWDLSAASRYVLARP
Sequence of Mitogen-activated protein kinase kinase kinase 3 (Homo sapiens) (Q99759 whole entry, the tested form may be a part): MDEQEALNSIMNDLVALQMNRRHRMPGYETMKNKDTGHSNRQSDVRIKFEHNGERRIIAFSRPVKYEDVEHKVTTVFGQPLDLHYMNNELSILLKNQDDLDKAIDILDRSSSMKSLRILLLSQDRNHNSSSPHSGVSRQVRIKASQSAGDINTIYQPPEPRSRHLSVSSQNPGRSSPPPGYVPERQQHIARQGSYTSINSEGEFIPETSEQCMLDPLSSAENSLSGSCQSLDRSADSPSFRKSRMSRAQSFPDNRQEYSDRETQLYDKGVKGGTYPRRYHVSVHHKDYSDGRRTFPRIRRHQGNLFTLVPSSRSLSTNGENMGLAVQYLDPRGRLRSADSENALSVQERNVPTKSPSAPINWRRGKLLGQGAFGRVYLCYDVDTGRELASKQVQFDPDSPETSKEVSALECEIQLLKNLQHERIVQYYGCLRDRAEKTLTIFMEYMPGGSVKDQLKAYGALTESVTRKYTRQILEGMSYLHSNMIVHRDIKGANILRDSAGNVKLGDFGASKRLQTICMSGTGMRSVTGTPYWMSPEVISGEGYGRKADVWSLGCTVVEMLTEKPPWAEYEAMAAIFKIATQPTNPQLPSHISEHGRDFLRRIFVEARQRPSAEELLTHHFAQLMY
Sequence of Calcium/calmodulin-dependent protein kinase type II subunit delta (Homo sapiens) (Q13557 whole entry, the tested form may be a part): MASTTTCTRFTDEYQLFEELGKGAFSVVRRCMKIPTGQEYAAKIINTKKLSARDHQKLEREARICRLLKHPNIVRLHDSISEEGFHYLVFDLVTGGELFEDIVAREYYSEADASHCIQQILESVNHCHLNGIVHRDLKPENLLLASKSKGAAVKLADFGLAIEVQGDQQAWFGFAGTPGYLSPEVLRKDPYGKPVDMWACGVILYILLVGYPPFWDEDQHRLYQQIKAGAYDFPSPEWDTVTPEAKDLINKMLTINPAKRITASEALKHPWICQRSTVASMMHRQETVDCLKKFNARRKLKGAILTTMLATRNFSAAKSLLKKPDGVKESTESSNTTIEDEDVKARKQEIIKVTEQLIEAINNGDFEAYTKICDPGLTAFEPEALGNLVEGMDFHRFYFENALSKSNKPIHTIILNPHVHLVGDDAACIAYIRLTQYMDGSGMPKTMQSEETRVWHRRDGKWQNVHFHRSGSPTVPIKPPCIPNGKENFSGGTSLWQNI
Sequence of Membrane-associated tyrosine- and threonine-specific cdc2-inhibitory kinase (Homo sapiens) (Q99640 whole entry, the tested form may be a part): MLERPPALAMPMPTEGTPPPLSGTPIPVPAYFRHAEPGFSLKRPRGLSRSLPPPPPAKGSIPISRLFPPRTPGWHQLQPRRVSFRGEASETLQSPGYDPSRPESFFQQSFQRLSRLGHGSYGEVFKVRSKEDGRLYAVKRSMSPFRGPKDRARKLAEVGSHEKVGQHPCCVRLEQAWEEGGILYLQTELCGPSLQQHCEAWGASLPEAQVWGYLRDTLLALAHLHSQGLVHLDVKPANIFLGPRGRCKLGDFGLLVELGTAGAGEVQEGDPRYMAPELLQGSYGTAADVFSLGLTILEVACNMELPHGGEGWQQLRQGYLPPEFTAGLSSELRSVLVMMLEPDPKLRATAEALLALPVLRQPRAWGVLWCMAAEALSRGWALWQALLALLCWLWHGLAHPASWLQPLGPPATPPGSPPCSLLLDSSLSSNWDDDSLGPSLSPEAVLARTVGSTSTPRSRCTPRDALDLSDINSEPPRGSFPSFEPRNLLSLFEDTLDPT
Sequence of Proto-oncogene tyrosine-protein kinase receptor Ret (Homo sapiens), P07949 [V804M] (P07949 whole entry V804M, the tested form may be a part): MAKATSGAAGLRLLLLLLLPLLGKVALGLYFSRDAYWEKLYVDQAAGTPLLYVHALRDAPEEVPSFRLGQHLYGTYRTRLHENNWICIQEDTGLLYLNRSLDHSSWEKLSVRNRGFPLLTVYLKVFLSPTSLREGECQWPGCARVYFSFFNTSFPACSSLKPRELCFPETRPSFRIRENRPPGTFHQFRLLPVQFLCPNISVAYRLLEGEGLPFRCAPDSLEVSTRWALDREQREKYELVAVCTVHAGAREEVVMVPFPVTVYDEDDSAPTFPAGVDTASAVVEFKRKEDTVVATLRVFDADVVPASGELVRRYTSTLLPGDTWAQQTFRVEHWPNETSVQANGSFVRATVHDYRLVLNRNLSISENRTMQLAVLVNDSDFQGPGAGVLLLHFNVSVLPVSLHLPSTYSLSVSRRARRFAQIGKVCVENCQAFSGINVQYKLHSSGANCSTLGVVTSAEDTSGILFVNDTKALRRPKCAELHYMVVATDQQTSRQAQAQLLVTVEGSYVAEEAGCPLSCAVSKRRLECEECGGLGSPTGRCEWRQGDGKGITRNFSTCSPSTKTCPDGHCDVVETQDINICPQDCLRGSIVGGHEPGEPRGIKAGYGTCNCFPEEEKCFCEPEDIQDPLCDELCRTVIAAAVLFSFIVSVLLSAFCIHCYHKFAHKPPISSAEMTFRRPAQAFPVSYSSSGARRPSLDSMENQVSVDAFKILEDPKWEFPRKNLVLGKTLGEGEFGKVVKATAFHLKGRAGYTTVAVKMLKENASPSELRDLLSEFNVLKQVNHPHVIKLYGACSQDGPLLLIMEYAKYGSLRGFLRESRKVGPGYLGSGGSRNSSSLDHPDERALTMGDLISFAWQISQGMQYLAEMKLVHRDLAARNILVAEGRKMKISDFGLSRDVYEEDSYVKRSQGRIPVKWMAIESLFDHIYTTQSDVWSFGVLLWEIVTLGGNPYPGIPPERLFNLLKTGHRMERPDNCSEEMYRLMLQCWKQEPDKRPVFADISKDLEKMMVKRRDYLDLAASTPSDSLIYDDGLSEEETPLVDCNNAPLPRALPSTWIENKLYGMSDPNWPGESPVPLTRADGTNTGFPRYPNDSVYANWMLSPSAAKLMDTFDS
Sequence of Serine/threonine-protein kinase ULK2 (Homo sapiens) (Q8IYT8 whole entry, the tested form may be a part): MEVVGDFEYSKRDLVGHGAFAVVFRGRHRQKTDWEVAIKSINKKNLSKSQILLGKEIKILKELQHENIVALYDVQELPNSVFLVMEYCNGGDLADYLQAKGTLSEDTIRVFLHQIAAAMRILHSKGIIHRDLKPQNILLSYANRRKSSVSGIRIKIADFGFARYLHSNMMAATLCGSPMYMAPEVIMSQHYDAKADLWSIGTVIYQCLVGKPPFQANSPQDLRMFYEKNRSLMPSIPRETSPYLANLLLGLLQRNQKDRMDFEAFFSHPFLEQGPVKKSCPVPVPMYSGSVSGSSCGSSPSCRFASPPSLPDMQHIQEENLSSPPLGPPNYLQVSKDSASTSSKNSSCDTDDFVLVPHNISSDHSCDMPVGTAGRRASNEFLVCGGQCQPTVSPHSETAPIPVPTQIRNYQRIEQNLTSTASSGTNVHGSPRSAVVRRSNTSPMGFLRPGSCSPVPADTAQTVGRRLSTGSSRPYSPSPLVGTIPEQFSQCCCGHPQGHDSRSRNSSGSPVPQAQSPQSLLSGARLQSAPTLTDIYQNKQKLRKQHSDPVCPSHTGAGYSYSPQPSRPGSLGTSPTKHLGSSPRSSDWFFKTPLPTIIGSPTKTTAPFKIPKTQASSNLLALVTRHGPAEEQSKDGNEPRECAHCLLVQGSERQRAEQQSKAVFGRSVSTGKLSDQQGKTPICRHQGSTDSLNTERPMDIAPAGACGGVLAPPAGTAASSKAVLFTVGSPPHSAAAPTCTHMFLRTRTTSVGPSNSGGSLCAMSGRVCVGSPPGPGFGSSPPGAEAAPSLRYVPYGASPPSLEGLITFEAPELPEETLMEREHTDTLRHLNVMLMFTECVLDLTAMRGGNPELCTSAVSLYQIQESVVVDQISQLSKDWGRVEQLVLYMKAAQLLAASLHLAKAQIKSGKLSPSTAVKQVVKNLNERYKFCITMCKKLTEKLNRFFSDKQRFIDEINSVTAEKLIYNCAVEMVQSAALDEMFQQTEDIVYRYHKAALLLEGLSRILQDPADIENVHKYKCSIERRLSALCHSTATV
Sequence of Serine/threonine-protein kinase ULK3 (Homo sapiens) (Q6PHR2 whole entry, the tested form may be a part): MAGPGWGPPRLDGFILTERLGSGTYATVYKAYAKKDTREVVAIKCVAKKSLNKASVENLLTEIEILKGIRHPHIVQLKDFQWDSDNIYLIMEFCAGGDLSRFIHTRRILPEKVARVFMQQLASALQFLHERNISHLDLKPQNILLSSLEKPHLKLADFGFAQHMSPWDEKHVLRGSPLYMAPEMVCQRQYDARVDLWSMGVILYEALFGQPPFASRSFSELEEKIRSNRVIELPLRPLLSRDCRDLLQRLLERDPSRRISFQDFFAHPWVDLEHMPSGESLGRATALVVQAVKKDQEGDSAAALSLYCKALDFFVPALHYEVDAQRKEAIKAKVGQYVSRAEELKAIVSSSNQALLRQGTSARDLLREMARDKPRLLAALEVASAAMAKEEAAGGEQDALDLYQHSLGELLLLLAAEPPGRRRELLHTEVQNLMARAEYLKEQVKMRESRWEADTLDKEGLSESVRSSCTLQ

SMILES: O=C(Nc1cccc([C@@H]2CN(c3ncnc4[nH]ccc34)CCN2CCO)c1)Nc1c(F)cccc1N1CCCC1
- inhibition [1]: 65%
- inhibition [2]: 100%
- inhibition [3]: 98%
- inhibition [4]: 100%
- inhibition [5]: 100%
- inhibition [6]: 11%
- inhibition [7]: 81%

SMILES: O=C(Nc1cccc([C@H]2CCCN(c3ncnc4[nH]ccc34)C2)c1)Nc1ccccc1N1CCCC1
- inhibition [8]: 54%
- inhibition [9]: 50%
- inhibition [10]: 0.65%
- inhibition [11]: 0%
- inhibition [12]: 47%
- inhibition [13]: 94%
- inhibition [14]: 100%
- inhibition [15]: 65%
- inhibition [16]: 100%
- inhibition [17]: 71%
- inhibition [18]: 61%
- inhibition [19]: 95%
- inhibition [20]: 88%
- inhibition [21]: 95%
- inhibition [22]: 24%
- inhibition [23]: 100%
- inhibition [24]: 49%
- inhibition [25]: 25%
- inhibition [26]: 90%
- inhibition [27]: 71%
